Experimental data taken from patent EP0222274A1, “2-Hydroxybenzamides” (NIHON TOKUSHU NOYAKU SEIZO K.K., priority 1985, dated 1987).

How the values were obtained:
Rosellinia necatrix = assay: Control of root mould (Wurzelschimmel) in apple, cut twigs in infected soil; format: in vivo; details: Konzentration des Wirkstoffs 0,1 %; 5 ml per 100 ml soil; apple twigs (Star King), 3 weeks at 25°C; score 0 (kein Befall) to 5
From the text: (§1) Aktive Verbindung: 50 Gew.-Teile; Träger: 45 Gew.-Teile einer Mischung aus Diatomeenerde und Kaolin (1:5), Emulgator: 5 Gew.Teile Polyoxyethylenalkylphenylether.
(§2) Die aktive Verbindung, der Träger und der Emulgator in den oben angegebenen Mengen wurden pulverisiert und miteinander zu einem benetzbaren Pulver vermischt. Eine vorher festgegegte Menge des benetzbaren Pulvers wurde mit Wasser vermischt.
Test der Bekämpfung des Wurzelschimmels beim Apfel
In Reiskleie kultivierter Rosellinia necatrix wurde in sterilisierte Erde inokuliert, um eine infizierte Erde herzustellen. Eine wie in Beispiel 5 präparierte aktive Verbindung in vorher festgelegter Konzentration wurde in einer Menge von 5 ml pro 100 ml Erde gleichmäßig in die Erde hineingegossen und ausreichend mit dieser ver mischt. Abgeschnittene Apfelzweige (Varietät: Star King) wurden senkrecht in der Erde eingebettet, so daß die Hälfte jedes Zweiges in der Erde steckte. Die Zweige wurden dann unter Gewächshaus-Bedingungen bei 25°C gehalten. Drei Wochen später wurde der Grad des Befalls der Zweige durch den oben bezeichneten Pilz beurteilt und nach dem Grad der Verletzung anhand der folgenden […] bewertet:
0: Kein Befall; 1: geringfügiger Befall wurde beobachtet; 2: Befall wurde beobachtet auf 3 % bis weniger als 10 % der Oberfläche der Zweige; 3: Befall wurde beobachtet auf 10 % bis weniger als 30 % der Oberfläche der Zweige; 4: Befall wurde beobachtet auf 30 % bis weniger als 50 % der Oberfläche der Zweige; 5: Befall wurde beobachtet auf wenigstens 50 % der Oberfläche der Zweige.

[1] = tested on: "Komatsuna" (einer Varietät chinesischen Kohls); assay: Phytotoxicity to "Komatsuna" in the clubroot control test; format: in vivo, "Komatsuna" (Varietät: Misugi)
From the text: (§3) Test der Bekämpfung von Kohlhernie bei "Komatsuna" (einer Varietät chinesischen Kohls):
(§4) Aktive Verbindung: 1,5 Teile; Isopropylhydrogenphosphat (PAP): 0,5 Teile; Ton-Pulver: 98 Teile.
(§5) Die oben angegebenen Stoffe wurden pulverisiert und vermischt, wodurch ein Stäubemittel erhalten wurde.
(§6) Mit Plasmodiophora brassicae infizierte Erde wurde in unglasierte Töpfe mit einem Durchmesser von 21 cm gefüllt, und ein Stäubemittel einer Verbindung gemäß der vorliegenden Erfindung, das wie oben angegeben hergestellt worden war, wurde in einer vorher festgelegten Konzentration gleichmäßig mit der Erde vermischt.
(§7) Samen von "Komatsuna" (Varietät: Misugi) wurden in einer Menge von 20 Körnern pro Topf eingesät. Die Töpfe wurden 4 Wochen in einem auf 20°C gehaltenen klimatisierten Gewächshaus gehalten. Dann wurden die Pflanzen ausgegraben, und der Krankheitszustand wurde nach dem folgenden Maßstab bewertet. Der Erkrankungs-Index und das Verhältnis der erkrankten Pflanzen wurden berechnet.

Rhizopus oryzae = assay: Control of damping-off of rice seedlings, soil drench; format: in vivo; details: 500 ml per box, rice (Kusabue)
From the text: Test der Bekämpfung des Umfallens von Reis-Setzlingen (Wurzelbrand der Keimpflanzen)
Präparat einer Test-Verbindung:
as §1, §2
Sterilisierte Erde wurde mit in Reiskleie kultiviertem Rhizopus oryzae inokuliert. Die Erde wurde in Anzuchtkästen für Sämlinge (60 cm x 40 cm x 3 cm) eingefüllt. Die wie oben angegeben präparierte aktive Verbindung wurde in vorher festgelegter Konzentration in einer Menge von 500 ml pro Kasten gleichmäßig in die Erde hineingegossen. Samen von Reis (Varietät: Kusabue) wurden in einer Menge von 200 g (Trockengewicht) pro Kasten ausgesät und drei Tage in einer Anzucht-Vorrichtung bei 32°C kultiviert. Danach wurden die Anzucht-Kästen in ein Glashaus überführt und in üblicher Weise gehalten. 20 Tage später wurden 200 Setzlinge aus der Mitte jedes Anzuchtkastens herausgezogen, und der Grad der Verletzung wurde nach dem folgenden Maßstab bewertet. Der Bekämpfungs-Index und das Verhältnis der gesunden Setzlinge wurden berechnet.
Grad der Verletzung: 0: n₀ = gesunde Setzlinge; 1: n₁ = Setzlinge, bei denen das Wachstum der Haarwurzeln in geringem Maße schlecht war; 2: n₂ = Setzlinge, bei denen eine keulenartige Verformung teilweise an den Pfahlwurzeln beobachtet wurde; 3: n₃ = Setzlinge, bei denen das Wachstum der Pfahlwurzeln außerordentlich schlecht war und viele keulenartige Verformungen auftraten; 4: n₄ = Setzlinge, die keulenartig geworden waren, mit gehemmtem Wachstum der Pfahlwurzeln und Deckwurzeln.

Plasmodiophora brassicae = assay: Control of clubroot (Kohlhernie) in "Komatsuna" grown in infected soil, dust mixed into soil; format: in vivo; details: 4 weeks at 20°C
From the text: as §3
Präparat einer aktiven Verbindung:
as §4, §5, §6, §7
3: L₁ = Zahl der Pflanzen, deren Wurzeln durch das Auftreten der Kohlhernie (Kropfkrankheit) sehr stark vergrößert worden waren; 2: L₂ - Zahl der Pflanzen, bei denen Kohlhernie auftrat, jedoch auf die Pfahlwurzeln beschränkt war; 1: L₃ = Zahl der Pflanzen, bei denen geringsfügiges Auftreten von Kohlhernie beobachtet wurde; 0: L₄ = Zahl der gesunden Pflanzen. [formula]

[2] = Konzentration des Wirkstoffs 0,1 %
[3] = Konzentration des Wirkstoffs 0,15 %

SMILES | Grad der der Verletzung (Rosellinia necatrix) | Bekämpfungs-Index (Rhizopus oryzae; [2]) | Grad der Verletzung (Rhizopus oryzae; [2]) | Verhältnis der gesunden Setzlinge (Rhizopus oryzae; [2]) | Phytotoxizität ([1]; Menge des Wirkstoffs 5 kg/ha) | Erkrankungs-Index (Plasmodiophora brassicae; Menge des Wirkstoffs 5 kg/ha) | Verhältnis der erkrankten Pflanzen (Plasmodiophora brassicae; Menge des Wirkstoffs 5 kg/ha) | also measured
CCOC(NC(=O)c1ccccc1O)C(Cl)(Cl)Cl (centres unmarked) [A-1, reference compound] | 3 | 43% | 28,3% | 35,5% |  |  |  | Phytotoxizität ([1]; Menge des Wirkstoffs 20 kg/ha): keine
O=C(NC(OCCBr)C(Cl)(Cl)Cl)c1ccccc1O (centres unmarked) [B-1, reference compound] |  | 60% | 19,6% | 55,5% |  |  |  | Phytotoxizität ([1]; Menge des Wirkstoffs 20 kg/ha): keine
CCCCNC(=O)n1c(NC(=O)OC)nc2ccccc21 [Benomyl handelsüblich, Methyl-1-(butylcarbamoyl)-2-benzimidazolcarbamat, reference compound] | 1 |  |  |  |  |  |  | 
O=[N+]([O-])c1c(Cl)c(Cl)c(Cl)c(Cl)c1Cl [PCNB handelsüblich, Pentachloronitrobenzol, reference compound] |  |  |  |  |  |  |  | Phytotoxizität ([1]; Menge des Wirkstoffs 60 kg/ha): keine; Erkrankungs-Index (Plasmodiophora brassicae; Menge des Wirkstoffs 60 kg/ha): 58,3%; Verhältnis der erkrankten Pflanzen (Plasmodiophora brassicae; Menge des Wirkstoffs 60 kg/ha): 75%
N#Cc1c(Cl)c(Cl)c(Cl)c(C#N)c1Cl [TPN handelsüblich, Tetrachloroisophthalsäurenitril, reference compound] |  |  |  |  |  |  |  | Bekämpfungs-Index (Rhizopus oryzae; [3]): 85%; Grad der Verletzung (Rhizopus oryzae; [3]): 7,3%; Verhältnis der gesunden Setzlinge (Rhizopus oryzae; [3]): 75,5%
CCOC(NC(=O)c1cc(Cl)ccc1O)C(Cl)(Cl)Cl (centres unmarked) [Verbindung 1, N-(2,2,2-Trichloro-1-ethoxyethyl)-5-chloro-2-hydroxybenzamid] |  |  |  |  | keine | 0% | 0% | 
C=CCOC(NC(=O)c1cc(Cl)ccc1O)C(Cl)(Cl)Cl (centres unmarked) [Verbindung 2, N-(2,2,2-Trichloro-1-allyloxyethyl)-5-chloro-2-hydroxybenzamid] |  | 95% | 2,7% | 90,5% | keine | 0% | 0% | 
O=C(NC(OCC(F)(F)F)C(Cl)(Cl)Cl)c1cc(Cl)ccc1O (centres unmarked) [Verbindung 4, N-[2,2,2-Trichloro-1-(2,2,2-trifluoroethoxy)ethyl]-5-chloro-2-hydroxybenzamid] |  | 95% | 2,5% | 91,5% | keine | 0% | 0% | 
O=C(NC(OCC(F)(F)F)C(Cl)(Cl)Cl)c1cc(Br)ccc1O (centres unmarked) [Verbindung 8] | 0,5 |  |  |  | keine | 1,3% | 7% | 
CC(=O)Oc1ccc(Cl)cc1C(=O)NC(OCC(F)(F)F)C(Cl)(Cl)Cl (centres unmarked) [Verbindung 12] | 0 | 94% | 3,0% | 90,5% | keine | 0% | 0% | 
COC(NC(=O)c1cc(Cl)ccc1O)C(Cl)(Cl)Cl (centres unmarked) [Verbindung 13] | 0,5 | 94% | 3,0% | 85,0% |  |  |  | 
CCOC(NC(=O)c1cc(Cl)ccc1OC(C)=O)C(Cl)(Cl)Cl (centres unmarked) [Verbindung 20, N-(2,2,2-Trichloro-1-ethoxyethyl)-2-acetoxy-5-chlorobenzamid] | 0,3 |  |  |  |  |  |  | 
